In one experiment the target is T1, GST-Flk1 (Mus musculus, UniProt P35918).
T1 construct: GST-Flk1cd purified from sf9 recombinant baculovirus transformation; host or cells: Sf9 (baculovirus)
Briefly: GST-FLK-1 bioassay (bio flkGST). It counts as biochemical.

The target of another experiment is T2, HER-2 kinase (Homo sapiens, UniProt P04626).
T2 construct: Use EGFr/HER-2 chimera/3T3-C7 cell line for this assay; It is expressed in mouse NIH 3T3 clone C7 cells; P00533 (Epidermal growth factor receptor)
T2 sequence (P04626 720-987 limits assumed): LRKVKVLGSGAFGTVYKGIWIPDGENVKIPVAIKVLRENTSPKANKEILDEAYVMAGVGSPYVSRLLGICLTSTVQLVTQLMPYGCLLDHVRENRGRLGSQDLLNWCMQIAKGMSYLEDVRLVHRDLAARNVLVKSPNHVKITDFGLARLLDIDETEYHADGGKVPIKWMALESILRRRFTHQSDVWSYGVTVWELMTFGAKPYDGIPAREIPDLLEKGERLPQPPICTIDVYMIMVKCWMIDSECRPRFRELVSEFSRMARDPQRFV
Briefly: Cellular HER-2 kinase assay. The settings on record: read-out: Her2 Kinase IC50. It counts as cell-based.

Another experiment addresses T3, PDGFR-β (Homo sapiens, UniProt P09619).
T3 construct: host or cells: NIH 3T3
The experiment can be described thus: PDGFR bioassay (bio PDGF). It counts as biochemical.

A further experiment concerns the target T4, EGFR (Homo sapiens, UniProt P00533).
T4 construct: A431 cell lysate (SUGEN, Inc.); host or cells: A431
The experiment can be described thus: EGFR bioassay (bio EGF). It counts as biochemical.

This note sets out measurements from US6573293B2, “Pyrrole substituted 2-indolinone protein kinase inhibitors” (Sugen, Inc., priority 2000, dated 2003).

Structures are written as SMILES.

T1 sequence (P35918 784-1345 limits assumed): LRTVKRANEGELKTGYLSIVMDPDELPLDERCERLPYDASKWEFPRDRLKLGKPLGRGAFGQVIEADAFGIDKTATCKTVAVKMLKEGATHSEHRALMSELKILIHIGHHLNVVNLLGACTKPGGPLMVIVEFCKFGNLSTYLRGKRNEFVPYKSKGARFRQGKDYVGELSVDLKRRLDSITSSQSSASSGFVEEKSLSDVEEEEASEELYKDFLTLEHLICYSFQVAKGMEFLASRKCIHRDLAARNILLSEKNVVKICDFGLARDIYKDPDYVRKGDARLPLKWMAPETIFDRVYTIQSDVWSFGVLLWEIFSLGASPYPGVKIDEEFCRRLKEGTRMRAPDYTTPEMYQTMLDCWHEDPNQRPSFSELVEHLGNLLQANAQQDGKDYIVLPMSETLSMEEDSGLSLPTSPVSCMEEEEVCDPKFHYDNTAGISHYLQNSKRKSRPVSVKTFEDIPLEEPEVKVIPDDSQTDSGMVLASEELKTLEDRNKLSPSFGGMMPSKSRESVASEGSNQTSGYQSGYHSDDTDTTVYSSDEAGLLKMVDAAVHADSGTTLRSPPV
T3 sequence (P09619 33-1106): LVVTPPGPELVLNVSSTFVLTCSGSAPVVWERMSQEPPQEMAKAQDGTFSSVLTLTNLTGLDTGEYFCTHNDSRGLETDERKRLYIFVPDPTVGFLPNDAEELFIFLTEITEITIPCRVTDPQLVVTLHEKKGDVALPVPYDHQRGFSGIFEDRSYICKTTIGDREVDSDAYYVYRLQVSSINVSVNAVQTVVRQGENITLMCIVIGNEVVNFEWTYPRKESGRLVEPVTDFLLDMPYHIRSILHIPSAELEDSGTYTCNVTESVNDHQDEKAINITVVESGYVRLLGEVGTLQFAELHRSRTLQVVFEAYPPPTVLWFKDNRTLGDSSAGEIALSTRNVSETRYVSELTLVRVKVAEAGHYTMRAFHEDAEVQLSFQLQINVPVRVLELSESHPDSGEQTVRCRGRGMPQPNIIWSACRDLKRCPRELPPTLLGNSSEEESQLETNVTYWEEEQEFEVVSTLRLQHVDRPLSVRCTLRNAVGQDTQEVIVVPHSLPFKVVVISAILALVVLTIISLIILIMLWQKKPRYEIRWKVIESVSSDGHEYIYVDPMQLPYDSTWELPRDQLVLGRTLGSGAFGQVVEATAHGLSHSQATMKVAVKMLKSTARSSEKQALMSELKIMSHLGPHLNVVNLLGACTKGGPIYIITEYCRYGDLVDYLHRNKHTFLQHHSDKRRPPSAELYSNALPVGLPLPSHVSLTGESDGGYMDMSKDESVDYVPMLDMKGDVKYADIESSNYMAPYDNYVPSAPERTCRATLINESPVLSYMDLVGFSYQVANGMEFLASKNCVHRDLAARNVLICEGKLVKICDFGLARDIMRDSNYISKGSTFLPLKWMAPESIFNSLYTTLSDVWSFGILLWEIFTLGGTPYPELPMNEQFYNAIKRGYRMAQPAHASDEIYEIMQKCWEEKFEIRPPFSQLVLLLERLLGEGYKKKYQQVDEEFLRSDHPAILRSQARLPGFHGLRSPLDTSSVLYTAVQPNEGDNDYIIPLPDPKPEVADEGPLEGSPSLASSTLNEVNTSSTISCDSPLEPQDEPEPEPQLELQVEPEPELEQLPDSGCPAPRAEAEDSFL
T4 sequence (P00533 25-1210): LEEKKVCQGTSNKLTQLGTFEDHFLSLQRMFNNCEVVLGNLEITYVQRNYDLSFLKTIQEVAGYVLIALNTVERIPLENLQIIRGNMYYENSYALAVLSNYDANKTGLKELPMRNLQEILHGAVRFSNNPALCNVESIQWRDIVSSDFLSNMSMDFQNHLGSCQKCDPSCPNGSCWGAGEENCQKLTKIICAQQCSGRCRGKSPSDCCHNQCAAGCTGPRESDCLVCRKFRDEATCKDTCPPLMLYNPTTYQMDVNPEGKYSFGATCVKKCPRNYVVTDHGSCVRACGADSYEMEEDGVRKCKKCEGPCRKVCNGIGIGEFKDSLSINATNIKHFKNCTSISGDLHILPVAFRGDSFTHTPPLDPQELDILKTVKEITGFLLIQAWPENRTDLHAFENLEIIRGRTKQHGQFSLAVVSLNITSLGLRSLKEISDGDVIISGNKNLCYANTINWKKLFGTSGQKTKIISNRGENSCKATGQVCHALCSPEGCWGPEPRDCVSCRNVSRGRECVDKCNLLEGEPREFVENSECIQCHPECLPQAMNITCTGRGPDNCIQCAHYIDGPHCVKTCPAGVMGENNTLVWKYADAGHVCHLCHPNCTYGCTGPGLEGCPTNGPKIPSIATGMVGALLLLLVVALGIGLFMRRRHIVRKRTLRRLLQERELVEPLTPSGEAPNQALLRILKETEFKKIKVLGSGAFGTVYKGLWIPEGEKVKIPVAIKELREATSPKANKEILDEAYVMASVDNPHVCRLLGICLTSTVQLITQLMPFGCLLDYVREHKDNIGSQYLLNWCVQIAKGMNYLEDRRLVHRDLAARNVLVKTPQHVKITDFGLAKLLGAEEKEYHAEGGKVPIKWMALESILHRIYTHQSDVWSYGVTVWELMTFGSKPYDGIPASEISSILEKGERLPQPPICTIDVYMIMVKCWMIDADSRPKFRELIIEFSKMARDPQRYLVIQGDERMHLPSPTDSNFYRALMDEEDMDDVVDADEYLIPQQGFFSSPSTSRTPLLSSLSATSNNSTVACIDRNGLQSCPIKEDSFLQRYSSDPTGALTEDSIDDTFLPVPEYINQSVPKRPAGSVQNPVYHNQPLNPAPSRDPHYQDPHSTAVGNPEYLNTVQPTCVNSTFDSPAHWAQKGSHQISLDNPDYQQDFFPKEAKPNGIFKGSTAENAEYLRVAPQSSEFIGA
Procedure for GST-Flk1: This assay analyzes the tyrosine kinase activity of GST-Flk1 on poly(glu,tyr) peptides.
Preparation of poly(glu,tyr)(pEY) coated assay plates: Coat 2 ug/well of poly(glu,tyr)(pEY) in 100 ul PBS, hold at room temperature for 2 hours or at 4° C. overnight. Cover plates well to prevent evaporation.
When all reagents have dissolved, adjust the pH to 7.2 with HCl. Bring total volume to 1 L with dH2O.
PBST Buffer: to 1 L of PBS Buffer, add 1.0 ml Tween-20.
Adjust pH to 7.2 with HCl. Add 10 g BSA, stir to dissolve. Bring total volume to 1 L with dH2O. Filter to remove particulate matter.
Adjust total volume to 1 L with PBS buffer, filter to remove particulate matter.
GST-Flk1cd purified from sf9 recombinant baculovirus transformation (SUGEN, Inc.).
Add 10 N NaOH until EDTA dissolves. Adjust pH to 8.0. Adjust total volume to 100 ml with dH2O.
Anti-phosphotyrosine monoclonal antibody conjugated to horseradish peroxidase (PY99 HRP, Santa Cruz Biotech).
2,2′-Azinobis(3-ethylbenzthiazoline-6-sulfonic acid (ABTS, Moss, Cat. No. ABST).
Coat Corning 96-well ELISA plates with 2 μg of polyEY peptide in sterile PBS as described in step 3 of Materials and Reagents.
Remove unbound liquid from wells by inverting plate. Wash once with TBST. Pat the plate on a paper towel to remove excess liquid.
Add 100 μl of 1% BSA in PBS to each well. Incubate, with shaking, for 1 hr. at room temperature.
Soak wells with 50 mM HEPES (pH7.5) (150 μl/well).
Dilute test compound with dH2O/4% DMSO to 4 times the desired final assay concentration in 96-well polypropylene plates.
Add 25 μl diluted test compound to ELISA plate. In control wells, place 25 μl of dH2O/4% DMSO.
Add 25 μl 0.5M EDTA to negative control wells.
Dilute GST-Flk1 to 0.005 μg (5 ng)/well with KDB.
Add 50 μl of diluted enzyme to each well.
Incubate, with shaking, for 15 minutes at room temperature.
Wash 3×with TBST and pat plate on paper towel to remove excess liquid.
Incubate, with shaking, for 90 min. at room temperature.
Add 100 μl of room temperature ABTS solution to each well.
Stop reaction by adding 20 μl of 10% SDS to each well.
Procedure for HER-2 kinase: Cellular HER-2 Kinase Assay
This assay is used to measure HER-2 kinase activity in whole cells in an ELISA format.
Fetal Bovine Serum (FBS, GIBCO Catalog #16000-044), heat inactivated in a water bath for 30 min. at 56° C.
Corning 96-well ELISA Plates.
NUNC 96-well V bottom polypropylene plates.
SUMO 1: monoclonal anti-EGFR antibody (SUGEN, Inc.).
Blocking Buffer: 5% Carnation Instant Milk® in PBS.
Suspend powder in 100 uL of 10 mM HCl. Add 100 uL 10 mM NaOH. Add 800 uL PBS and transfer to an Eppendorf tube, store at −20° C. until ready to use.
Na3VO4. […] Adjust pH to 10. Boil in microwave for one minute (solution becomes clear). Cool to room temperature. Adjust pH to 10. Repeat heating/cooling cycle until pH remains at 10.
Rabbit polyclonal antiserum specific for phosphotyrosine (anti-Ptyr antibody, SUGEN, Inc.).
Affinity purified antiserum, goat anti-rabbit IgG antibody, peroxidase conjugate (Biosource Cat #ALI0404).
30% Hydrogen peroxide solution.
Coat Corning 96 well ELISA plates with SUMO1 at 1.0 ug per well in PBS, 100 ul final volume/well. Store overnight at 4° C.
On day of use, remove coating buffer and wash plate 3 times with dH2O and once with TBST buffer. All washes in this assay should be done in this manner, unless otherwise specified.
Add 100 ul of Blocking Buffer to each well. Incubate plate, with shaking, for 30 min. at room temperature. Just prior to use, wash plate.
Use EGFr/HER-2 chimera/3T3-C7 cell line for this assay.
Choose dishes having 80-90% confluence. Collect cells by trypsinization and centrifuge at 1000 rpm at room temperature for 5 min.
Resuspend cells in starve medium and count with trypan blue. Viability above 90% is required. Seed cells in starve medium at a density of 2,500 cells per well, 90 ul per well, in a 96 well microtiter plate. Incubate seeded cells overnight at 37° under 5% CO2.
Start the assay two days after seeding.
Test compounds are dissolved in 4% DMSO. Samples are then further diluted directly on plates with starve-DMEM. Typically, this dilution will be 1:10 or greater.
Incubate under 5% CO2 at 37° C. for 2 hours.
Prepare fresh HNTG* sufficient for 100 ul per well; place on ice.
After 2 hour incubation with test compound, add prepared EGF ligand to cells, 50 ul per well, for a final concentration of 50 nM. Positive control wells receive the same amount of EGF. […] Incubate at 37° C. for 10 min.
Remove test compound, EGF, and DMEM. Wash cells once with PBS.
Transfer HNTG* to cells, 100 ul per well. Place on ice for 5 minutes. Meanwhile, remove blocking buffer from ELISA plate and wash.
Scrape cells from plate with a micropipettor and homogenize cell material by repeatedly aspirating and dispensing the HNTG* lysis buffer. Transfer lysate to a coated, blocked, washed ELISA plate. Or, use a Costar transfer cartridge to transfer lysate to the plate.
Incubate, with shaking, at room temperature for 1 hr.
Remove lysate, wash. Transfer freshly diluted anti-Ptyr antibody (1:3000 in TBST) to ELISA plate, 100 ul per well.
Incubate, with shaking, at room temperature, for 30 min.
Remove anti-Ptyr antibody, wash. Transfer freshly diluted BIOSOURCE antibody to ELISA plate (1:8000 in TBST, 100 ul per well).
Incubate, with shaking, at room temperature for 30 min.
Remove BIOSOURCE antibody, wash. Transfer freshly prepared ABTS/H2O2 solution to ELISA plate, 100 ul per well.
Stop reaction with the addition of 100 ul of 0.2M HCl per well.

A word on the IC50: it is the concentration that gives 50% inhibition. As to `CCN(CC)CCCNC(=O)c1[nH]c(/C=C2\C(=O)Nc3ccccc32)cc1C` [Example 12, 3-Methyl-5-(2-oxo-1,2-dihydroindol-3-ylidenemethyl)-1H-pyrrole-2-carboxylic acid (3-diethylaminopropyl)amide], the IC50 against GST-Flk1 was more than 20 µM; on HER-2 kinase, 27.7 µM; on PDGFR-β it was 21.5 µM; against EGFR, more than 100 µM.

As to `CCN(CC)CCCNC(=O)c1[nH]c(/C=C2\C(=O)Nc3ccc(Br)cc32)cc1C` [Example 13, 5-(5-Bromo-2-oxo-1,2-dihydroindol-3-ylidenemethyl)-3-methyl-1H-pyrrole-2-carboxylic acid (3-diethylaminopropyl)amide], the IC50 on GST-Flk1 was more than 20 µM; on HER-2 kinase, 2.66 µM; on PDGFR-β, 81.9 µM; against EGFR it was 8.17 µM.

Consider `CCN(CC)CCCNC(=O)c1[nH]c(/C=C2\C(=O)Nc3cc(-c4ccccc4)ccc32)cc1C` [Example 14, 3-Methyl-5-(2-oxo-6-phenyl-1,2-dihydroindol-3-ylidenemethyl)-1H-pyrrole-2-carboxylic acid (3-diethylaminopropyl)amide], for which the IC50 against GST-Flk1 is 13 µM; on HER-2 kinase it was 66 µM; on PDGFR-β it was 42.4 µM; against EGFR, more than 100 µM.

For `CCN(CC)CCCNC(=O)c1[nH]c(/C=C2\C(=O)Nc3ccc(OC)cc32)cc1C` [Example 15, 5-(5-Methoxy-2-oxo-1,2-dihydroindol-3-ylidenemethyl)-3-methyl-1H-pyrrole-2-carboxylic acid (3-diethylaminopropyl)amide], the IC50 on HER-2 kinase turned out to be 98.6 µM.

As for `CCN(CC)CCCNC(=O)c1[nH]c(/C=C2\C(=O)Nc3cc(OC)ccc32)cc1C` [Example 16, 5-(6-Methoxy-2-oxo-1,2-dihydroindol-3-ylidenemethyl)-3-methyl-1H-pyrrole-2-carboxylic acid (3-diethylaminopropyl)amide], the IC50 at HER-2 kinase was 23.3 µM; against PDGFR-β, 98.1 µM.

On to `CCN(CC)CCCNC(=O)c1[nH]c(/C=C2\C(=O)Nc3ccc(Br)cc32)c(C(=O)c2ccccc2)c1C` [Example 21, 4-Benzoyl-5-(5-bromo-2-oxo-1,2-dihydroindol-3-ylidenemethyl)-3-methyl-1H-pyrrole-2-carboxylic acid (3-diethylaminopropyl)amide], for which the IC50 is 7.18 µM on GST-Flk1, 27.7 µM at HER-2 kinase, more than 100 µM against PDGFR-β and 40.3 µM at EGFR.

Take `Cc1c(C(=O)NCCCN2CCOCC2)[nH]c(/C=C2\C(=O)Nc3ccc(Br)cc32)c1C(=O)c1ccccc1` [Example 22, 4-Benzoyl-5-(5-bromo-2-oxo-1,2-dihydroindol-3-ylidenemethyl)-3-methyl-1H-pyrrole-2-carboxylic acid (3-morpholin-4-ylpropyl)amide]: the IC50 at HER-2 kinase is 87.7 µM.

For `Cc1c(C(=O)NCCCN2CCCC2)[nH]c(/C=C2\C(=O)Nc3ccccc32)c1C(=O)c1ccccc1` [Example 23, 4-Benzoyl-3-methyl-5-(2-oxo-1,2-dihydroindol-3-ylidenemethyl)-1H-pyrrole-2-carboxylic acid (3-pyrrolidin-1-ylpropyl)amide], the IC50 on GST-Flk1 was more than 20 µM; at HER-2 kinase it was 4.05 µM; at PDGFR-β it was more than 100 µM; at EGFR, 36.6 µM.

With `Cc1c(C(=O)NCCCN2CCCC2)[nH]c(/C=C2\C(=O)Nc3ccc(Br)cc32)c1C(=O)c1ccccc1` [Example 24, 4-Benzoyl-5-(5-bromo-2-oxo-1,2-dihydroindol-3-ylidenemethyl)-3-methyl-1H-pyrrole-2-carboxylic acid (3-pyrrolidin-1-ylpropyl)amide], the IC50 at HER-2 kinase is 5.31 µM; on EGFR it was 16.8 µM.

Consider `Cc1c(C(=O)NCCCN2CCCC2)[nH]c(/C=C2\C(=O)Nc3cc(-c4ccccc4)ccc32)c1C(=O)c1ccccc1` [Example 25, 4-Benzoyl-3-methyl-5-(2-oxo-6-phenyl-1,2-dihydroindol-3-ylidenemethyl)-1H-pyrrole-2-carboxylic acid (3-pyrrolidin-1-ylpropyl)amide], for which the IC50 is 12.6 µM at GST-Flk1, 7.9 µM on HER-2 kinase and 23.5 µM at EGFR.

On to `COc1ccc2c(c1)NC(=O)/C2=C\c1[nH]c(C(=O)NCCCN2CCCC2)c(C)c1C(=O)c1ccccc1` [Example 26, 4-Benzoyl-5-(6-methoxy-2-oxo-1,2-dihydroindol-3-ylidenemethyl)-3-methyl-1H-pyrrole-2-carboxylic acid (3-pyrrolidin-1-ylpropyl)amide], for which the IC50 against GST-Flk1 amounted to 16 µM; on HER-2 kinase, 10 µM; at PDGFR-β, 66.9 µM; against EGFR, 34.7 µM.

Consider `COc1ccc2c(c1)/C(=C/c1[nH]c(C(=O)NCCCN3CCCC3)c(C)c1C(=O)c1ccccc1)C(=O)N2` [Example 27, 4-Benzoyl-5-(5-methoxy-2-oxo-1,2-dihydroindol-3-ylidenemethyl)-3-methyl-1H-pyrrole-2-carboxylic acid (3-pyrrolidin-1-ylpropyl)amide], for which the IC50 at HER-2 kinase was 3.91 µM; against PDGFR-β, more than 100 µM; against EGFR it was 26.5 µM.

Consider `Cc1c(C(=O)NCCCN2CCCC2)[nH]c(/C=C2\C(=O)Nc3ccc(F)cc32)c1C(=O)c1ccccc1` [Example 28, 4-Benzoyl-5-(5-fluoro-2-oxo-1,2-dihydroindol-3-ylidenemethyl)-3-methyl-1H-pyrrole-2-carboxylic acid (3-pyrrolidin-1-ylpropyl)amide], for which the IC50 at GST-Flk1 came out at 4.5 µM; on HER-2 kinase, 2.67 µM; on PDGFR-β, 71.3 µM; at EGFR, 53.7 µM.

Regarding `CCN(CC)CCCNC(=O)c1[nH]c(/C=C2\C(=O)Nc3ccc(Br)cc32)c(C(C)=O)c1C` [Example 29, 4-Acetyl-5-(5-bromo-2-oxo-1,2-dihydroindol-3-ylidenemethyl)-3-methyl-1H-pyrrole-2-carboxylic acid (3-diethylaminopropyl)amide], the half-maximal inhibitory concentration (IC50) was 10.1 µM at GST-Flk1, 3.98 µM on HER-2 kinase, more than 100 µM against PDGFR-β and 26.7 µM on EGFR.

As to `CC(=O)c1c(/C=C2\C(=O)Nc3ccc(Br)cc32)[nH]c(C(=O)NCCCN2CCCC2)c1C` [Example 30, 4-Acetyl-5-(5-bromo-2-oxo-1,2-dihydroindol-3-ylidenemethyl)-3-methyl-1H-pyrrole-2-carboxylic acid (3-pyrrolidin-1-ylpropyl)amide], the concentration for half-maximal inhibition (IC50) is 9.4 µM at GST-Flk1, 4.1 µM on HER-2 kinase, more than 100 µM on PDGFR-β and 18.7 µM at EGFR.

In the case of `CC(=O)c1c(/C=C2\C(=O)Nc3ccc(Br)cc32)[nH]c(C(=O)NCCCN2CCOCC2)c1C` [Example 31, 4-Acetyl-5-(5-bromo-2-oxo-1,2-dihydroindol-3-ylidenemethyl)-3-methyl-1H-pyrrole-2-carboxylic acid (3-morpholin-4-ylpropyl)amide], the values for the IC50 on HER-2 kinase and against EGFR were 47.2 µM and 9.83 µM, respectively.

As to `CC(=O)c1c(/C=C2\C(=O)Nc3ccc(Br)cc32)[nH]c(C(=O)NCCCO)c1C` [Example 32, 4-Acetyl-5-(5-bromo-2-oxo-1,2-dihydroindol-3-ylidenemethyl)-3-methyl-1H-pyrrole-2-carboxylic acid (3-hydroxy-propyl)amide], the IC50 at GST-Flk1 is 45.7 µM; on HER-2 kinase, more than 100 µM; against PDGFR-β, 5.94 µM; against EGFR, more than 100 µM.

For `CC(=O)c1c(/C=C2\C(=O)Nc3ccc(Br)cc32)[nH]c(C(=O)NCCN2CCOCC2)c1C` [Example 34, 4-Acetyl-5-(5-bromo-2-oxo-1,2-dihydroindol-3-ylidenemethyl)-3-methyl-1H-pyrrole-2-carboxylic acid (2-morpholin-4-yl-ethyl)amide], the IC50 is more than 50 µM at GST-Flk1, more than 100 µM at HER-2 kinase, more than 100 µM against PDGFR-β and more than 100 µM at EGFR.

For `CC(=O)c1c(/C=C2\C(=O)Nc3ccc(Br)cc32)[nH]c(C(=O)NCCN2CCCC2)c1C` [Example 35, 4-Acetyl-5-(5-bromo-2-oxo-1,2-dihydroindol-3-ylidenemethyl)-3-methyl-1H-pyrrole-2-carboxylic acid (2-pyrrolidin-1-yl-ethyl)amide], the IC50 at GST-Flk1 was more than 20 µM; at HER-2 kinase it was 54.1 µM; against PDGFR-β, more than 100 µM; on EGFR, 80.4 µM.

The molecule `Cc1[nH]c(/C=C2\C(=O)Nc3ccc(-c4ccccc4)cc32)c(C)c1C(=O)NCCCn1ccnc1` [Example 58, 2,4-Dimethyl-5-(2-oxo-5-phenyl-1,2-dihydroindol-3-ylidenemethyl)-1H-pyrrole-3-carboxylic acid (3-imidazol-1-ylpropyl)amide] showed a half-inhibitory concentration (IC50) against PDGFR-β of 21.1 µM.

As for `CCN(CC)CCNC(=O)c1c(C)[nH]c(/C=C2\C(=O)Nc3cc(-c4cc(Cl)cc(Cl)c4)ccc32)c1C` [Example 62, 5-[6-(3,5-Dichloro-phenyl)-2-oxo-1,2-dihydroindol-3-ylidenemethyl]-2,4-dimethyl-1H-pyrrole-3-carboxylic acid (2-diethylaminoethyl)amide], the IC50 is 8 µM on GST-Flk1 and 8.32 µM at PDGFR-β.

Turning to `CCN(CC)CCNC(=O)c1c(C)[nH]c(/C=C2\C(=O)Nc3cc(-c4cccnc4)ccc32)c1C` [Example 63, 2,4-Dimethyl-5-(2-oxo-6-pyridin-3-yl-1,2-dihydroindol-3-ylidenemethyl)-1H-pyrrole-3-carboxylic acid (2-diethylaminoethyl)amide], the IC50 was found to be 0.21 µM on GST-Flk1 and 8.59 µM at EGFR.

In the case of `CCN(CC)CCNC(=O)c1c(C(C)C)[nH]c(/C=C2\C(=O)Nc3ccc(Br)cc32)c1C(C)C` [Example 71, 5-(5-Bromo-2-oxo-1,2-dihydroindol-3-ylidenemethyl)-2,4-diisopropyl-1H-pyrrole-3-carboxylic acid (2-diethylaminoethyl)amide], the IC50 against GST-Flk1 was 15.2 µM; at HER-2 kinase, 9.91 µM; on PDGFR-β it was 22.5 µM.
